Data as given in patent publication US10793520B2, “Sulfonylaminobenzamide compound and pest control agent” (Nippon Soda Co., Ltd., priority 2016, dated 2020).

What follows are compounds tested on Mythimna separata (assay: Efficacy test against Mythimna separata (treated artificial feed)). Conditions: in vivo.
Method: Five parts of the compound of the present invention, 93.6 parts of dimethylformamide and 1.4 parts of a polyoxyethylene alkyl aryl ether were mixed together and dissolved to obtain an emulsion (1) containing 5% of the active constituent.
The mortality rate was calculated using the following equation. Mortality rate (%)=(number of dead pests/number of test pests)×100
First, 0.8 g of an artificial feed (Insecta LFS, manufactured by Nosan Corporation) and 1 μl of the emulsion (I) were mixed thoroughly, and 0.2 g of the resulting mixture was placed in each of the treatment areas of a plastic test container (volume: 1.4 ml) to complete preparation of a test feed.
Two second-instar larvae of Mythimna separata were inoculated into each treatment area, and the test container was sealed with a plastic lid. The sealed container was placed in a temperature-controlled room at 25° C., and the mortality rate and the amount of feed consumed were determined on the fifth day. The test was repeated. Further, a test performed under the same conditions, but with the exception of excluding the compound of the present invention from the emulsion (1), was used as a control.

| SMILES | mortality rate against Mythimna separata, or amount of feed consumed relative to control |
| --- | --- |
| CC(C)C(NC(=O)c1ccc(C(F)(F)F)cc1NS(=O)(=O)C(F)(F)F)c1ccc(Cl)cc1 (racemic) [b-3] | 100%, or the amount of feed consumed was 10% or less |
| O=C(Nc1cc(C(F)(F)F)cc(C(F)(F)F)c1)c1ccc(Cl)cc1NS(=O)(=O)C(F)(F)F [a-1] | 100%, or the amount of feed consumed was 10% or less |
| O=C(Nc1ccc(F)c(C(F)(F)F)c1)c1ccc(C(F)(F)F)cc1NS(=O)(=O)C(F)(F)F [a-2] | 100%, or the amount of feed consumed was 10% or less |
| O=C(Nc1cc(C(F)(F)F)cc(C(F)(F)F)c1)c1ccc(C(F)(F)F)cc1NS(=O)(=O)C(F)(F)F [a-3] | 100%, or the amount of feed consumed was 10% or less |
| O=C(Nc1ccc(C(F)(F)F)cc1)c1ccc(C(F)(F)F)cc1NS(=O)(=O)C(F)(F)F [a-4] | 100%, or the amount of feed consumed was 10% or less |
| O=C(Nc1ccc(C(F)(F)F)cc1Cl)c1ccc(C(F)(F)F)cc1NS(=O)(=O)C(F)(F)F [a-7] | 100%, or the amount of feed consumed was 10% or less |
| O=C(Nc1ccc(C(F)(F)F)cn1)c1ccc(C(F)(F)F)cc1NS(=O)(=O)C(F)(F)F [a-8] | 100%, or the amount of feed consumed was 10% or less |
| O=C(Nc1ccc(C(F)(F)F)c(Cl)c1)c1ccc(C(F)(F)F)cc1NS(=O)(=O)C(F)(F)F [a-10] | 100%, or the amount of feed consumed was 10% or less |
| O=C(Nc1cc(C(F)(F)F)ccc1F)c1ccc(C(F)(F)F)cc1NS(=O)(=O)C(F)(F)F [a-11] | 100%, or the amount of feed consumed was 10% or less |
| O=C(Nc1cccc(OC(F)(F)F)c1)c1ccc(C(F)(F)F)cc1NS(=O)(=O)C(F)(F)F [a-12] | 100%, or the amount of feed consumed was 10% or less |
| Cc1ccc(NC(=O)c2ccc(C(F)(F)F)cc2NS(=O)(=O)C(F)(F)F)cc1 [a-13] | 100%, or the amount of feed consumed was 10% or less |
| O=C(Nc1ccc(Cl)cc1)c1ccc(C(F)(F)F)cc1NS(=O)(=O)C(F)(F)F [a-14] | 100%, or the amount of feed consumed was 10% or less |
| O=C(Nc1ccc(OC(F)(F)F)cc1)c1ccc(C(F)(F)F)cc1NS(=O)(=O)C(F)(F)F [a-15] | 100%, or the amount of feed consumed was 10% or less |
| O=C(Nc1ccc(F)c(C(F)(F)F)c1)c1cc(F)c(F)cc1NS(=O)(=O)C(F)(F)F [a-16] | 100%, or the amount of feed consumed was 10% or less |
| O=C(Nc1c(Cl)cc(C(F)(F)F)cc1Cl)c1ccc(C(F)(F)F)cc1NS(=O)(=O)C(F)(F)F [a-18] | 100%, or the amount of feed consumed was 10% or less |
| O=C(Nc1ncc(C(C(F)(F)F)C(F)(F)F)s1)c1ccc(C(F)(F)F)cc1NS(=O)(=O)C(F)(F)F [a-19] | 100%, or the amount of feed consumed was 10% or less |
| Cc1cc(C(F)(C(F)(F)F)C(F)(F)F)ccc1NC(=O)c1ccc(C(F)(F)F)cc1NS(=O)(=O)C(F)(F)F [a-20] | 100%, or the amount of feed consumed was 10% or less |
| CN(c1cc(C(F)(F)F)ccc1C(=O)Nc1ccc(F)c(C(F)(F)F)c1)S(=O)(=O)C(F)(F)F [a-21] | 100%, or the amount of feed consumed was 10% or less |

| SMILES | mortality rate against Mythimna separata, or amount of feed consumed relative to control |
| --- | --- |
| O=C(Nc1ccc(Cl)c(Cl)c1)c1ccc(C(F)(F)F)cc1NS(=O)(=O)C(F)(F)F [a-22] | 100%, or the amount of feed consumed was 10% or less |
| O=C(Nc1ncc(C(F)(F)F)cc1Cl)c1ccc(C(F)(F)F)cc1NS(=O)(=O)C(F)(F)F [a-23] | 100%, or the amount of feed consumed was 10% or less |
| O=C(Nc1ccc(OC(F)(F)F)cc1)c1ccc(OC(F)(F)F)cc1NS(=O)(=O)C(F)(F)F [a-24] | 100%, or the amount of feed consumed was 10% or less |
| O=C(Nc1ccc(S(F)(F)(F)(F)F)cc1)c1ccc(C(F)(F)F)cc1NS(=O)(=O)C(F)(F)F [a-28] | 100%, or the amount of feed consumed was 10% or less |
| O=C(Nc1ccc(OC(F)(F)F)cc1)c1ccc(Br)cc1NS(=O)(=O)C(F)(F)F [a-29] | 100%, or the amount of feed consumed was 10% or less |
| O=C(Nc1ccc(OC(F)(F)F)cc1)c1ccc(C(F)(F)F)cc1NS(=O)(=O)CC(F)(F)F [a-30] | 100%, or the amount of feed consumed was 10% or less |
| O=C(Nc1ccc(OC(F)(F)F)cc1)c1ccc(-n2cncn2)cc1NS(=O)(=O)C(F)(F)F [a-31] | 100%, or the amount of feed consumed was 10% or less |
| O=C(Nc1ccc(OC(F)(F)F)cc1)c1ccc(-c2ccc(Cl)nc2)cc1NS(=O)(=O)C(F)(F)F [a-32] | 100%, or the amount of feed consumed was 10% or less |
| O=C(Nc1ccc(OC(F)(F)F)cc1)c1ccc(C(F)(F)F)cc1NS(=O)(=O)C(F)F [a-33] | 100%, or the amount of feed consumed was 10% or less |
| O=C(Nc1ccc(OC(F)(F)F)cc1)c1ccc(-c2ccc(C(F)(F)F)nc2)cc1NS(=O)(=O)C(F)(F)F [a-34] | 100%, or the amount of feed consumed was 10% or less |
| O=C(Nc1ccc(OC(F)(F)F)cc1)c1ccc(-c2ccc(C(F)(F)F)cc2)cc1NS(=O)(=O)C(F)(F)F [a-35] | 100%, or the amount of feed consumed was 10% or less |
| N#Cc1ccc(C(=O)Nc2ccc(C(F)(F)F)cc2)c(NS(=O)(=O)C(F)(F)F)c1 [a-36] | 100%, or the amount of feed consumed was 10% or less |
| N#Cc1ccc(NC(=O)c2ccc(C(F)(F)F)cc2NS(=O)(=O)C(F)(F)F)cc1C(F)(F)F [a-37] | 100%, or the amount of feed consumed was 10% or less |
| N#Cc1ccc(C(=O)Nc2ccc(C(F)(F)F)cc2)c(NS(=O)(=O)CC(F)(F)F)c1 [a-38] | 100%, or the amount of feed consumed was 10% or less |
| N#Cc1ccc(NC(=O)c2ccc(C(F)(F)F)cc2NS(=O)(=O)C(F)(F)F)cc1 [a-39] | 100%, or the amount of feed consumed was 10% or less |
| N#Cc1ccc(NC(=O)c2ccc(C#N)cc2NS(=O)(=O)C(F)(F)F)cc1 [a-40] | 100%, or the amount of feed consumed was 10% or less |
| O=C(Nc1ccc(F)c(C(F)(F)F)c1)c1ccc(Cl)cc1NS(=O)(=O)C(F)(F)F [a-41] | 100%, or the amount of feed consumed was 10% or less |
| O=C(Nc1ccc(OC(F)(F)F)cc1)c1ccc(-c2ccc(C(F)(F)F)cc2Cl)cc1NS(=O)(=O)C(F)(F)F [a-42] | 100%, or the amount of feed consumed was 10% or less |
